From ChEMBL document CHEMBL3867449, “Cytotoxic and Antibacterial Preussomerins from the Mangrove Endophytic Fungus Lasiodiplodia theobromae ZJ-HQ1” (J Nat Prod, 2016)
≈ marks a conversion by molar mass, not a printed value.

What was measured:
Bacillus spizizenii = assay: Antibacterial activity against Bacillus subtilis ATCC 6633 by broth dilution method; assay type: functional
[1] = Cytotoxicity against human A549 cells assessed as decrease in cell viability after 72 hrs by MTS assay; assay type: functional, cell-based; settings: A549, 72 h
[2] = Cytotoxicity against human MCF7 cells assessed as decrease in cell viability after 72 hrs by MTS assay; assay type: functional, cell-based; settings: MCF7, 72 h
[3] = Cytotoxicity against human HeLa cells assessed as decrease in cell viability after 72 hrs by MTS assay; assay type: functional, cell-based
[4] = Cytotoxicity against HEK293T cells assessed as decrease in cell viability after 72 hrs by MTS assay; assay type: toxicity, cell-based, HEK-293T; settings: human
Staphylococcus aureus = assay: Antibacterial activity against Staphylococcus aureus ATCC 12598 by broth dilution method; assay type: functional
[5] = Cytotoxicity against human HepG2 cells assessed as decrease in cell viability after 72 hrs by MTS assay; assay type: functional, cell-based; settings: HepG2, 72 h
Salmonella enteritidis = assay: Antibacterial activity against Salmonella enteritidis ATCC 13076 by broth dilution method; assay type: functional, Salmonella enterica subsp. enterica serovar Enteritidis; settings: Salmonella enterica
Pseudomonas aeruginosa = assay: Antibacterial activity against Pseudomonas aeruginosa ATCC 27853 by broth dilution method; assay type: functional
Escherichia coli = assay: Antibacterial activity against Escherichia coli ATCC 25922 by broth dilution method; assay type: functional

CO[C@@H]1[C@H](Cl)C(=O)c2c(O)ccc3c2[C@@]12Oc1cccc4c1[C@](O3)(O2)[C@H](OC)CC4=O
MIC (Bacillus spizizenii): 25 mg/L (≈ 56.2 µM) | IC50 [1]: 8.9 µM | IC50 [2]: 6.2 µM | IC50 [3]: 27 µM | IC50 at 72 h [4]: 11 µM | MIC (Staphylococcus aureus): 3.2 mg/L (≈ 7.19 µM) | IC50 [5]: 7.7 µM | MIC (Salmonella enteritidis): > 50 mg/L | MIC (Pseudomonas aeruginosa): > 50 mg/L | MIC (Escherichia coli): > 50 mg/L

O=C1C[C@@H](O)[C@]23Oc4ccc(O)c5c4[C@](Oc4cccc1c42)(O3)[C@@H]1O[C@@H]1C5=O
MIC (Bacillus spizizenii): 25 mg/L (≈ 65.7 µM) | IC50 [1]: 5.4 µM | IC50 [2]: 2.5 µM | IC50 [3]: 15 µM | IC50 at 72 h [4]: 9.4 µM | MIC (Staphylococcus aureus): 50 mg/L (≈ 131 µM) | IC50 [5]: 3.8 µM | MIC (Salmonella enteritidis): > 50 mg/L | MIC (Pseudomonas aeruginosa): > 50 mg/L | MIC (Escherichia coli): > 50 mg/L

CO[C@@H]1CC(=O)c2cccc3c2[C@@]12Oc1ccc(O)c4c1[C@](O3)(O2)[C@H](O)[C@H](Cl)C4=O
MIC (Bacillus spizizenii): 50 mg/L (≈ 116 µM) | IC50 [1]: 8.5 µM | IC50 [2]: 5.9 µM | IC50 [3]: 19 µM | IC50 at 72 h [4]: 4.8 µM | MIC (Staphylococcus aureus): 6.2 mg/L (≈ 14.4 µM) | IC50 [5]: 13 µM | MIC (Salmonella enteritidis): > 50 mg/L | MIC (Pseudomonas aeruginosa): > 50 mg/L | MIC (Escherichia coli): > 50 mg/L

O=C1CC[C@]23Oc4ccc(O)c5c4[C@](Oc4cccc1c42)(O3)[C@@H]1O[C@@H]1C5=O
MIC (Bacillus spizizenii): 13 mg/L (≈ 35.7 µM) | IC50 [1]: 9.4 µM | IC50 [2]: 2.6 µM | IC50 [3]: 19 µM | IC50 at 72 h [4]: 12 µM | MIC (Staphylococcus aureus): 1.6 mg/L (≈ 4.39 µM) | IC50 [5]: 4.4 µM | MIC (Salmonella enteritidis): > 50 mg/L | MIC (Pseudomonas aeruginosa): > 50 mg/L | MIC (Escherichia coli): > 50 mg/L

O=C1c2c(O)ccc3c2[C@@]2(Oc4cccc5c4[C@](C=C[C@@H]5O)(O3)O2)[C@@H]2O[C@H]12
MIC (Bacillus spizizenii): 25 mg/L (≈ 68.6 µM) | IC50 [1]: 7.7 µM | IC50 [2]: 3.1 µM | IC50 [3]: 18 µM | IC50 at 72 h [4]: 6.9 µM | MIC (Staphylococcus aureus): 13 mg/L (≈ 35.7 µM) | IC50 [5]: 3.6 µM | MIC (Salmonella enteritidis): > 50 mg/L | MIC (Pseudomonas aeruginosa): > 50 mg/L | MIC (Escherichia coli): > 50 mg/L

Oc1ccc2c3c1[C@@H](O)[C@H]1O[C@H]1[C@]31Oc3cccc4c3[C@](C=C[C@@H]4O)(O2)O1
MIC (Bacillus spizizenii): 13 mg/L (≈ 35.5 µM) | IC50 [1]: 40.2 µM | IC50 [2]: 71 µM | IC50 [3]: > 100 µM | IC50 at 72 h [4]: > 100 µM | MIC (Staphylococcus aureus): 6.2 mg/L (≈ 16.9 µM) | IC50 [5]: > 100 µM | MIC (Salmonella enteritidis): > 50 mg/L | MIC (Pseudomonas aeruginosa): > 50 mg/L | MIC (Escherichia coli): > 50 mg/L

O=C1C=C[C@]23Oc4ccc(O)c5c4[C@](Oc4cccc1c42)(O3)[C@@H]1O[C@@H]1C5=O
MIC (Bacillus spizizenii): 50 mg/L (≈ 138 µM) | IC50 [1]: 6.2 µM | IC50 [2]: 4.2 µM | IC50 [3]: 14 µM | IC50 at 72 h [4]: 17 µM | MIC (Staphylococcus aureus): 13 mg/L (≈ 35.9 µM) | IC50 [5]: 8.5 µM | MIC (Salmonella enteritidis): > 50 mg/L | MIC (Pseudomonas aeruginosa): > 50 mg/L | MIC (Escherichia coli): > 50 mg/L

CO[C@@H]1CC(=O)c2cccc3c2[C@@]12Oc1ccc(O)c4c1[C@](O3)(O2)[C@H](O)CC4=O
IC50 [1]: 36.1 µM | IC50 [2]: 13 µM | IC50 [3]: > 100 µM | IC50 at 72 h [4]: 83 µM | IC50 [5]: 83 µM

O=C1CC[C@]23Oc4ccc(O)c5c4[C@](Oc4cccc1c42)(O3)[C@@H]1O[C@@H]1[C@@H]5O
IC50 [1]: 76.2 µM | IC50 [2]: > 100 µM | IC50 [3]: > 100 µM | IC50 at 72 h [4]: 86 µM | IC50 [5]: > 100 µM

O=C(O)c1cn(C2CC2)c2cc(N3CCNCC3)c(F)cc2c1=O [CIPROFLOXACIN]
MIC (Bacillus spizizenii): 0.5 mg/L (≈ 1.51 µM) | MIC (Staphylococcus aureus): 0.25 mg/L (≈ 0.754 µM) | MIC (Salmonella enteritidis): 0.25 mg/L (≈ 0.754 µM)

COc1cccc2c1C(=O)c1c(O)c3c(c(O)c1C2=O)C[C@@](O)(C(=O)CO)C[C@@H]3O[C@H]1C[C@H](N)[C@@H](O)[C@H](C)O1 [EPIRUBICIN]
IC50 [1]: 0.63 µM | IC50 [2]: 0.71 µM | IC50 [3]: 0.42 µM

CO[C@@H]1CC(=O)c2cccc3c2[C@@]12Oc1ccc(O)c4c1[C@](O3)(O2)[C@@H]1O[C@@H]1[C@@H]4O [PREUSSOMERIN C]
MIC (Bacillus spizizenii): > 50 mg/L | IC50 [1]: > 100 µM | IC50 [2]: > 100 µM | IC50 [3]: > 100 µM | IC50 at 72 h [4]: > 100 µM | MIC (Staphylococcus aureus): > 50 mg/L | IC50 [5]: > 100 µM | MIC (Salmonella enteritidis): > 50 mg/L | MIC (Pseudomonas aeruginosa): > 50 mg/L | MIC (Escherichia coli): > 50 mg/L

O=C1C=C[C@]23Oc4ccc(O)c5c4[C@](Oc4cccc1c42)(O3)[C@@H]1O[C@@H]1[C@@H]5O [PREUSSOMERIN D]
IC50 [1]: 6.6 µM | IC50 [2]: 9.8 µM | IC50 [3]: 21 µM | IC50 at 72 h [4]: 24 µM | IC50 [5]: 38 µM
